# Entries after “also recorded” stand apart in the source; their conditions may differ. Residues, ends and D or L forms follow the SMILES beside them.
# Columns and labels:
# HSC-4 cells [1] = assay: MTT assay of SSTP1-induced growth inhibition with or without inhibitors; format: cell-based; details: 4 h, SSTP1 10 μM; LMT-28 60 μM, Anti-IL6Rα 10 μg/ml, SC144 40 μM
# Source text: (§1) a. Inhibitors for IL6 (LMT-28), JAK (Ruxolitinib), gp130 (SC-144) and JNK (SP600125) as well as Anti-IL6Rα were used to check the dispensability of each of these molecules in inducing apoptosis by SSTP1. […] The SSTP1-mediated up-regulation of pJNK was not appreciably affected by either of these inhibitors, while pcJUN up-regulation was inhibited by only SP600125 (FIGS. 7a and b). […] LMT28 binds to the interface between IL6 and gp130 to block the activity of IL6. Since SSTP1 binds to a different site on the IL6/IL6Rα/gp130 complex, i.e., the interface of IL6 and IL6Rα, there is no competitive inhibition when we add LMT28. b.
# [2] = test system: STAT, JNK and cJUN phosphorylation in HSC-4 cells; assay: Western blot of HSC-4 cells treated with SSTP1 and inhibitors; format: cell-based; details: HSC-4, SSTP1 10 μM, SC144 40 μM, Anti-IL6Rα 10 μg/ml, 30 minutes
# Source text: as §1
# HSC-4 cells [3] = test system: HSC-4 cells
# Method: Evaluation of the cytotoxicity of SSTP1 and SSTP2 was performed using MTT assay in an oral cancer cell line, HSC-4 at various concentrations of the respective peptides.
# human RBCs = assay: Hemolysis of human RBCs; details: 5 μM
# Method: (§2) Further, the growth inhibitory property of SSTP1 on different cell lines with different levels of IL6Rα was investigated. Six cancer cell lines of different origin were evaluated for their IL6Rα expression in comparison to HSC-4 by western blot (FIGS. 8a and b). […] Since many of the bioactive peptides induce hemolysis, we evaluated the hemolysis induced by SSTP1 (FIG. 8d).
# IL6Rα [4] = target: T1, IL6Rα (Homo sapiens, UniProt P08887); assay: Pull-down assay using biotin-labelled peptides; format: binding
# T1 sequence (P08887 20-468): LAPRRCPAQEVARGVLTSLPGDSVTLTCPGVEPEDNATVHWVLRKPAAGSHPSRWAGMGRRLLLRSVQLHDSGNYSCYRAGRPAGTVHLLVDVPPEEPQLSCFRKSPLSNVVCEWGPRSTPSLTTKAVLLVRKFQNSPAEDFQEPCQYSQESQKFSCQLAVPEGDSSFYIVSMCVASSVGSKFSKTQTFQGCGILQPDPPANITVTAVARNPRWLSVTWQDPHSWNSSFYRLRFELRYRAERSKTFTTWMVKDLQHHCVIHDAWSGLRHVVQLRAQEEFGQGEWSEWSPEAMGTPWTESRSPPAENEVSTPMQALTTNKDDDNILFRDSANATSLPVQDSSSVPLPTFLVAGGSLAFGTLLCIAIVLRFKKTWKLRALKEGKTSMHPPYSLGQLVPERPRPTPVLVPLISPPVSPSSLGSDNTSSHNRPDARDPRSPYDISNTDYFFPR
# Source text: To check whether SSTP1 activates the IL6/IL6R pathway by binding to IL6Rα, we checked the co-localization of SSTP1 and IL6Rα on cell membrane. […] To visualize the IL6R-dependent SSTP1 endosomal up-take, we used an early endosome marker, Rab5C. We observed the co-existence of SSTP1 and IL6Rα within early endosomes, marked by Rab5C (FIGS. 4c and d). […] The physical interaction of SSTP1 and IL6Rα was also ascertained using FRET analysis (FIG. 4f).
# FIG. 4 illustrates SSTP1 interacts with IL6Rα and mediates the uptake of SSTP1 specifically FIG. 4(a) discusses HSC-4 cells were treated with Biotin labelled SSTP1 or SSTP2 (10 μM) for 30 minutes and then fixed and probed without permeabilization using mouse IL6Rα. 4(b) illustrates the co-localization of SSTP1 or SSTP2 to IL6Rα was analyzed for 11 cells and the Pearson's correlation was plotted. 4(c) illustrates cells were treated as in panel (a) and fixed and permeabilized to probe for IL6Rα, SSTP1 and Rab5c. The arrow mark indicates the co-localization. The scales bars represent 4 μm. 4(d) illustrates the Mander's overlap in SSTP1 foci were quantified for 10 cells. The average values for each cell is plotted. 4(e) illustrates the pull down assay using SSTP1-biotin and probed for IL6Rα. 4(f) illustrates the FRET analysis to show the SSTP1 binding to IL6Rα.
# HSC-4 cells [5] = assay: Annexin/PI staining with FACS analysis; format: cell-based; details: HSC-4, 10 μM, 22 h
# Method: To check whether the cytotoxic effect is due to apoptosis, Annexin/PI staining was performed, with the population with Annexin alone (early apoptotic), Annexin/PI dual stained (late apoptotic) and PI alone (dead cells) were quantified by FACS.
# MDA-MB-231 cells = details: read-out: IC50 growth inhibition (MTT)
# [6] = test system: Caspase 3, 7, 8, 9 and PARP in HSC-4 cells; assay: Western blot for caspase and PARP cleavage; format: cell-based; details: HSC-4, 10 μM
# AP1 = assay: Luciferase AP1 reporter assay; format: cell-based; details: in comparison to SSTP2
# human leukocytes = assay: Trypan blue exclusion of leukocytes; details: 4.5 μM, 48 h
# [7] = test system: JAK/STAT, JNK/AP1, MAPK and AKT phosphorylation in HSC-4 cells; assay: Western blot of JAK/STAT, JNK/AP1, MAPK and PI3K pathway phosphorylation; format: cell-based; details: HSC-4, 10 μM
# Source text: a. […] The phosphorylated forms of STAT1 (Y701) and STAT3 (Y705) were probed for western blot to see the JAK/STAT pathway activation. Another phosphorylation of STAT3 at S727, which is reported to be independent of JAK activation, was also probed. […] All these biochemical analyses point out that SSTP1 preferentially down-regulates JAK-mediated-phosphorylation of STATs and MAPK, simultaneously up-regulating phosphorylation of JNK1 and cJUN. b.
# [8] = test system: six cancer cell lines of different origin; assay: MTT assay in six cancer cell lines with up-regulated IL6Rα; format: cell-based; details: 10 μM SSTP1, all six cell lines
# Method: as §2
# IL6Rα [9] = target: T1, IL6Rα; assay: Co-localization of peptide and IL6Rα on cell membrane (Pearson's coefficient); format: cell-based; parameters: fixed and probed without permeabilization using mouse IL6Rα; endogenous in cells; host or cells: HSC-4; details: HSC-4, 10 μM, 30 minutes
# Source text: To check whether SSTP1 activates the IL6/IL6R pathway by binding to IL6Rα, we checked the co-localization of SSTP1 and IL6Rα on cell membrane. […] To visualize the IL6R-dependent SSTP1 endosomal up-take, we used an early endosome marker, Rab5C. We observed the co-existence of SSTP1 and IL6Rα within early endosomes, marked by Rab5C (FIGS. 4c and d). […] The physical interaction of SSTP1 and IL6Rα was also ascertained using FRET analysis (FIG. 4f). FIG. 4 illustrates SSTP1 interacts with IL6Rα and mediates the uptake of SSTP1 specifically FIG. 4(a) discusses HSC-4 cells were treated with Biotin labelled SSTP1 or SSTP2 (10 μM) for 30 minutes and then fixed and probed without permeabilization using mouse IL6Rα. 4(b) illustrates the co-localization of SSTP1 or SSTP2 to IL6Rα was analyzed for 11 cells and the Pearson's correlation was plotted. 4(c) illustrates cells were treated as in panel (a) and fixed and permeabilized to probe for IL6Rα, SSTP1 and Rab5c. The arrow mark indicates the co-localization. The scales bars represent 4 μm. 4(d) illustrates the Mander's overlap in SSTP1 foci were quantified for 10 cells. The average values for each cell is plotted. 4(e) illustrates the pull down assay using SSTP1-biotin and probed for IL6Rα. 4(f) illustrates the FRET analysis to show the SSTP1 binding to IL6Rα.
smiles,measurement,setting,value
O=C(NNc1nc2cc(F)ccc2n2cccc12)c1cnccn1 [SC144],effect on SSTP1-induced growth inhibition,HSC-4 cells [1],significantly inhibited
same,"phosphorylation of STATs, JNK and cJUN",[2],significantly reduced
"CC[C@H](C)[C@H](NC(=O)[C@H](CC(C)C)NC(=O)[C@H](CC(C)C)NC(=O)[C@@H]1CCCN1C(=O)[C@H](CC(C)C)NC(=O)[C@@H](N)Cc1ccccc1)C(=O)N[C@@H](CO)C(=O)N[C@@H](C)C(=O)N[C@@H](CC(C)C)C(=O)N[C@H](C(=O)N[C@@H](CO)C(=O)N[C@@H](CC(C)C)C(=O)N[C@@H](Cc1ccccc1)C(=O)N1CCC[C@H]1C(=O)N[C@@H](CCCCN)C(=O)N[C@@H](CC(C)C)C(=O)NCC(=O)N[C@@H](CCCCN)C(N)=O)[C@@H](C)O [SSTP1, FLPLLISALTSLFPKLGK] (H-FLPLLISALTSLFPKLGK-NH2)",IC50,"HSC-4 cells [3]; read-out: IC50 growth inhibition (MTT), HSC-4 cells",10.2 µM
same,hemolysis,human RBCs,0.25%
same,physical interaction with IL6Rα (pull-down),IL6Rα [4],stronger than that of SSTP2
same,increase in early apoptotic population,HSC-4 cells [5],3 fold
same,IC50,MDA-MB-231 cells,4.5 µM
same,Caspase 8 cleavage,[6],unaffected
same,"cleavage of Caspase 3, 7 and 9",[6],active cleavage
same,time to PARP cleavage,[6],≤ 16 h
same,AP1 activity (luciferase reporter),AP1,activated
same,viability of leukocytes,human leukocytes,did not affect the viability; also recorded: no adverse effect; also recorded: Illustrates SSTP1 do not induce cell death in human leukocytes
same,STAT1 (Y701) phosphorylation,[7],did not affect STAT1 (Y701) phosphorylation significantly
same,STAT3 (Y705) phosphorylation,[7],drastically reduced
same,pJNK2 levels,[7],up-regulated
same,pSTAT3(S727),[7],slight up-regulation
same,pc-JUN level,[7],increased level
same,phosphorylation of JNK1,[7],markedly up-regulated
same,growth inhibitory potential compared to HSC-4,[8],drastic increase in the growth inhibitory potential
same,co-localization to IL6Rα on cell surface,IL6Rα [9],several foci on the cell surface with co-localization
"CC[C@H](C)[C@H](NC(=O)[C@H](CCCNC(=N)N)NC(=O)[C@H](CCCNC(=N)N)NC(=O)[C@@H]1CCCN1C(=O)[C@H](CC(C)C)NC(=O)[C@@H](N)Cc1ccccc1)C(=O)N[C@@H](CO)C(=O)N[C@@H](C)C(=O)N[C@@H](CCCNC(=N)N)C(=O)N[C@H](C(=O)N[C@@H](CO)C(=O)N[C@@H](CC(C)C)C(=O)N[C@@H](Cc1ccccc1)C(=O)N1CCC[C@H]1C(=O)N[C@@H](CCCCN)C(=O)N[C@@H](CCCNC(=N)N)C(=O)NCC(=O)N[C@@H](CCCCN)C(N)=O)[C@@H](C)O [SSTP2, FLPRRISARTSLFPKRGK-NH2, reference compound] (H-FLPRRISARTSLFPKRGK-NH2)","cytotoxicity (MTT), result in words",HSC-4 cells [3],ineffective in inducing cytotoxicity
